Reference: patent US7951906B2, “Compounds capable of interacting with a cell-surface fibroblast growth factor receptor” (Enkam Pharmaceuticals A/S, priority 2002, dated 2011)
Positions of bridges follow the written chain, without caps; N, C: chain ends. Chains are numbered I, II in the order given. No end group written: not given here.

Columns and labels:
hippocampal neurons = test: Neurite outgrowth from hippocampal neurons; format: cell-based, rat; details: for retained stimulatory effect relative to the entire (non-mutated) FG loop peptide: peptides 50 μM; for stimulation of neurite outgrowth / length of neurites: 24 h, 5 μM F3 module 2
Procedure: Dissociated neurons from embryonic rat hippocampus (embryonic day 19), prepared as described (Skladchikova et al., 1999), were grown on Permanox plastic (Nunc) for 24 h at a density of 6000 cells/cm^2, at 37° C., 5% CO2 in Neurobasal medium containing 20 mM Hepes, 100 U/ml penicillin, 100 μg/ml streptomycin, 0.4% BSA supplemented with B27 (Gibco BRL) and the below specified compounds. After 24 h, cells were fixed with paraformaldehyde, stained with Coomassie Brilliant Blue R250 and the length of neurites was measured as described (Skladchikova et al, 1999).

FGFR1 Ig modules 2, 3 = target: T1, FGFR1 Ig modules 2, 3 (Mus musculus, UniProt P16092); test: SPR binding to immobilized FGFR Ig modules 2, 3; details: for coefficient of dissociation: immobilized FGFR modules 2, 3
T1 construct: amino acids 249-365 and 141-365 of FGFR (swissprot p16092), respectively; made in house; host or cells: Drosophila S2 cells
T1 sequence (P16092 141-365): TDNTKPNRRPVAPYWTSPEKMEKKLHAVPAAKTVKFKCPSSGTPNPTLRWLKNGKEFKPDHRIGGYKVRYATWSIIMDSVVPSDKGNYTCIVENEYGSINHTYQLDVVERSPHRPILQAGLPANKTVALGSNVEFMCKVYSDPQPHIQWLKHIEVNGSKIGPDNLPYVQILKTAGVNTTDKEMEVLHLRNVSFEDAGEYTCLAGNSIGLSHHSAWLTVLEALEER
Text: The NCAM F3 modules 1, 2 (without expression of exons a, AAG), and FGFR1 Ig modules 2, 3 were produced using rat NCAM cDNA and mouse FGFR1 (IIIC iso-form) cDNA. The F3 module 1 and the combined F3 modules 1, 2 consist of […] (SEQ ID NO:173) and amino acids 507-611 and 507-705 of NCAM (swissprot p13596), respectively. […] The FGFR Ig module 2 consists of […] […] The FGFR Ig module 3 and the combined Ig modules 2, 3 consist of […] (SEQ ID NO:174) and amino acids 249-365 and 141-365 of FGFR (swissprot p16092), respectively. […] All the proteins were purified by affinity chromatography using Ni2^+−NTA resin (Qiagen, USA) and/or ion exchange chromatography and gel filtration. ^15N-labelled F3 module 2 was produced as described (Thomsen et al., 1996). The NCAM Ig modules 1, 2 and 3 (RV and amino acids 20-308 of rat NCAM, swissprot p13596) was produced as described (Soroka et al., 2002).
The flow-rate was 5 μl/min. […] The FGFR Ig modules 2, 3 were immobilized on a sensor chip CM5 using amine coupling kit (Biosensor AB) as follows: 1) the two halves of the chip (designated Fc1 and Fc2) were activated by 20 μl activation solution; 2) the protein was immobilized on Fc1 using 12 μl 20 μg/ml protein in 10 mM sodium phosphate buffer pH 6.0; 3) Fc1 and Fc2 were blocked by 35 μl blocking solution. […] The resulting curve was used for analysis.

[1] = system: polyclonal antibody raised against the intact FGL-peptide; test: Competitive ELISA of immunoreactivity with antibody raised against FGL-peptide; format: binding; details: rabbit serum
Text: Antibody specifically recognising an epitope comprising SEQ ID NO: 1 (FGL-peptide) were raised in rabbits according the standard procedure (Gill B M, Barbosa J A, Dinh T Q, Garrod S, O'Connor D T: Chromogranin B: isolation from pheochromocytoma, N-terminal sequence, tissue distribution and secretory vesicle processing. Regul Peptides 33:223-35, 1991). Synthetic FGL-peptide was coupled to a carrier protein, KLH (Keyhole Limpets Hemocyanin). The peptide was mixed with Freunds incomplete adjuvant and the mixture was injected into rabbits. 208 μg peptide was used per immunisation (per rabbit).
Antibodies (serum) were tested for specificity by competitive ELISA using a series FGL-peptide truncated variants according to the protocol described in R. J. Jenny, T. L. Messier, L. A. Ouellette, and W. R. Church, Methods Enzymol. 222, 400 (1993). 100% immunoreactivity was ob-served only with the intact FGL-peptide consisting of SEQ ID NO: 1.

human FGFR1 = target: T2, human FGFR1 (Homo sapiens, UniProt P11362); test: FGFR1 phosphorylation, Assay 1 (TREX-293 cells, StrepII-tagged FGFR1); format: cell-based; details: 20 min, 5 μM F3 module, 2.5 μM dendrimeric FG loop peptide
T2 construct: expressed in transfected cells; host or cells: TREX-293 cells (Invitrogen), Flp-In system
Procedure: Assay 1: TREX-293 cells (Invitrogen) were stably transfected with human FGFR1 having a C-terminal StrepII-tag (IBA biotech), using the Flp-In system (Invitrogen). For the study of phosphorylation: ˜2×10^7 cells were starved overnight before stimulation for 20 min with the specified compounds. Cells were lysed in PBS with 1% NP-40 and phosphatase inhibitors cocktail set II (Calbiochem). The cleared cell lysates were incubated with 50 μl agarose-coupled anti-phosphotyrosine antibodies (4G10-AC, Upstate Biotechnologies) for 3 hrs at 4° C. Care was taken to calibrate the amount of cells employed, so that considerable increases in phosphorylated FGFR could be detected. The bound protein was washed, eluted using 150 mM phenyl phosphate (Sigma), precipitated by 12% trichloroacetic acid, washed in cold acetone and dissolved in SDS-PAGE sample buffer. Immunoblotting was performed using antibodies against the recombinant StrepII-tag (IBA biotech). For immunoprecipitation: ˜1×10^7 cells were transiently transfected with the 180 kDa NCAM isoform or a control vector. Cells were incubated for 24 h and then starved overnight. After lysis, FGFR was purified on a StrepTactin Minicolumn (IBA Biotech) according to the manufacturer's instructions, and analyzed by immunoblotting with polyclonal antibodies against human NCAM.

T2 sequence (P11362 22-822): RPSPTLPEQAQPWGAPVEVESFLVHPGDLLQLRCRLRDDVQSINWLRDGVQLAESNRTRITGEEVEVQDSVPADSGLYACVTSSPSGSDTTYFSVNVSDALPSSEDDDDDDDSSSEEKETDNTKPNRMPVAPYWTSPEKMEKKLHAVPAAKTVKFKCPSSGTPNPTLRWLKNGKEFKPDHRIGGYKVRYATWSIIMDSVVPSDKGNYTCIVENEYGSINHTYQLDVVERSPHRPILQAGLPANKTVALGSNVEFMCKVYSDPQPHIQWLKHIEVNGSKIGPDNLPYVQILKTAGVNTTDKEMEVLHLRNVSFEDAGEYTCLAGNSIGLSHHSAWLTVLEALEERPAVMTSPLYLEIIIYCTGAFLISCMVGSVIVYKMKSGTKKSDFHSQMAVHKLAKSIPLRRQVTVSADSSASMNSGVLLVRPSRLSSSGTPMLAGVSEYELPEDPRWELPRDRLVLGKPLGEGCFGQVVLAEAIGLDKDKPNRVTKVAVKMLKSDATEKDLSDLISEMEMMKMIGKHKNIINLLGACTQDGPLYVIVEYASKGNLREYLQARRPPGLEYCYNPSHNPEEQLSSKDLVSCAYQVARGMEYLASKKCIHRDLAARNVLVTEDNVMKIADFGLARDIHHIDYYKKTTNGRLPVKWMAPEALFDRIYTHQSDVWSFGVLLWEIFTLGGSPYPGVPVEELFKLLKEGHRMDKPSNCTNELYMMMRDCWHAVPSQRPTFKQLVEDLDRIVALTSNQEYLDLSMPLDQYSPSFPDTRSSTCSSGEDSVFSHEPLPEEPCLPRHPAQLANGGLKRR

With “nonamer V^76-S^84: truncated version of the FG loop peptide, residues V^76-S^84 (VAENQQGKS; NCAM Fn III, 2 [Swiss-Prot P13591] FGFR binding motif (Variant))” the “retained stimulatory effect relative to the entire (non-mutated) FG loop peptide” value (hippocampal neurons; hippocampal neurons) was “approximately 50%”.

In the case of Nc1ncnc2c1ncn2[C@@H]1O[C@H](COP(=O)(O)OP(=O)(O)CP(=O)(O)O)[C@@H](O)[C@H]1O [AMP-PCP, reference compound], the “inhibition of the neuritogenic effect induced by the F3 module 2” value (hippocampal neurons; 5 μM F3 module, ATP or AMP-PCP 0.4, 1.0 mM) is reported as “complete inhibition” and the “inhibition of the neuritogenic effect induced by the FG loop peptide” value (hippocampal neurons; 50 μM peptide, ATP or AMP-PCP 0.4, 1.0 mM) is reported as “complete inhibition”.

In the case of “peptide derived from FGF2: peptide from a loop region in FGF2 similar to the heptameric NCAM peptide (AMKEDGR; FGF2)”, the “stimulation of neurite outgrowth / length of neurites” value (hippocampal neurons; hippocampal neurons) is reported as “to the same extent as the similar NCAM peptide”.

With “dendrimeric EF loop peptide: four peptide sequences of SEQ ID NO: 9 connected to a three-lysine backbone through their C-termini (TIMGLKPETRYAVR; also: four copies linked via C-termini to three-lysine dendrimer backbone)” the “binding to the immobilized FGFR modules” value (FGFR1 Ig modules 2, 3) was “real-time binding”.

For “TIMGLKPETRYAVR (FIII,1 domain of NCAM (Swiss-Prot P13591) FGFR binding motif) [EF loop peptide, peptide corresponding to residues T^573-R^586 of the NCAM F3 module 1]”, the “binding to the immobilized FGFR modules” value (FGFR1 Ig modules 2, 3) was “cannot be detected” and the “stimulation of neurite outgrowth / length of neurites” value (hippocampal neurons; hippocampal neurons) was “stimulate the neurite outgrowth significantly”.

“SEQ ID NO:171: 11-amino acid fragment of SEQ ID NO: 5 (axonal-associated cell adhesion molecule), two amino acids truncated from the C-terminus (VAENSRGKNVA; Axonal-associated cell adhesion molecule [NCBI NP_446331] FGFR binding motif)” was tested, and the “stimulation of neurite outgrowth / length of neurites” value (hippocampal neurons; hippocampal neurons) was “capable of stimulation of neurite outgrowth” and the “concentration of the peptide at maximal effect” value (hippocampal neurons; hippocampal neurons, neurite outgrowth) was “about 0.3 μg/ml”.

With “t4: truncated FGL-peptide lacking the three C-terminal amino acids (EVYVVAENQQGK; NCAM Fn III, 2 [Swiss-Prot P13591] FGFR binding motif (variant))” the immunoreactivity [1] was 80%.

In the case of “SEQ ID NO:151: truncated version of the FG loop peptide, residues A^77-K^83 of the NCAM F3 module 2 (AENQQGK; NCAM Fn III, 2 [Swiss-Prot P13591] FGFR binding motif (Variant))”, the “neurite outgrowth in dose-response study” value (hippocampal neurons; hippocampal neurons, neurite length versus concentration) is reported as “induced neurite outgrowth with a bell-shaped curve” and the “retained stimulatory effect relative to the entire (non-mutated) FG loop peptide” value (hippocampal neurons; hippocampal neurons) is reported as “approximately 50%”.

In the case of “YKK: the FG loop peptide in which Y^74, K^83 and K^85 were substituted with alanine (EVAVVAENQQGASAA)”, the “inhibition of the stimulatory effect of the peptide by ATP” value (hippocampal neurons; 50 μM peptide, ATP 0.4, 1.0 mM) is reported as “could no longer be inhibited”, the “stimulation of neurite outgrowth / length of neurites” value (hippocampal neurons; hippocampal neurons) is reported as “retained its neuritogenic potency” and the “retained stimulatory effect relative to the entire (non-mutated) FG loop peptide” value (hippocampal neurons; hippocampal neurons) is reported as “about 60%”.

With Cc1c[nH]c(/C=C2\C(=O)Nc3ccccc32)c1CCC(=O)O [SU54402, reference compound] the “block of neurite outgrowth stimulation by the EF loop peptide” value (hippocampal neurons; hippocampal neurons) was “specifically blocked”.

In the case of “I: EVYVVAENQQGKSKAKK / II: EVYVVAENQQGKSKAK / III: EVYVVAENQQGKSKA / IV: EVYVVAENQQGKSKA (amide I:16-IV:C, I:17-II:C, II:16-III:C (inferred)) [dendrimeric FG loop peptide]”, the coefficient of dissociation (FGFR1 Ig modules 2, 3) is reported as 3.97±2.29×10^−3 s^−1, the kon (FGFR1 Ig modules 2, 3; immobilized FGFR modules 2, 3, read-out: coefficient of association) is reported as 2070 ± 1.08e+06 M⁻¹ s⁻¹ and the “FGFR phosphorylation compared to the non-stimulated cells” value (human FGFR1) is reported as “substantially increase”.

In the case of “t1: truncated FGL-peptide lacking the three N-terminal amino acids (VVAENQQGKSKA; NCAM Fn III, 2 [Swiss-Prot P13591] FGFR binding motif (variant))”, the immunoreactivity [1] is reported as 40%.

B1: NCAM Ig modules 1, 2 and 3: control protein: RV and amino acids 20-308 of rat NCAM, swissprot p13596 (protein)
chain: RVLQVDIVPSQGEISVGESKFFLCQVAGDAKDKDISWFSPNGEKLSPNQQRISVVWNDDDSSTLTIYNANIDDAGIYKCVVTAEDGTQSEATVNVKIFQKLMFKNAPTPQEFKEGEDAVIVCDVVSSLPPTIIWKHKGRDVILKKDVRFIVLSNNYLQIRGIKKTDEGTYRCEGRILARGEINFKDIQVIVNVPPTVQARQSIVNATANLGQSVTLVCDADGFPEPTMSWTKDGEPIENEEEDDEKHIFSDDSSELTIRNVDKNDEAEYVCIAENKAGEQDASIHLKVFAK
With B1 the “binding to the immobilized FGFR modules” value (FGFR1 Ig modules 2, 3) was “does not bind”.

B2: NCAM F3 modules 1, 2: recombinant protein: AGHHHHHH and amino acids 507-705 of rat NCAM (swissprot p13596) (protein)
chain: AGHHHHHHQADTPSSPSIDRVEPYSSTAQVQFDEPEATGGVPILKYKAEWKSLGEEAWHSKWYDAKEANMEGIVTIMGLKPETRYAVRLAALNGKGLGEISAATEFKTQPVREPSAPKLEGQMGEDGNSIKVNLIKQDDGGSPIRHYLVKYRALASEWKPEIRLPSGSDHVMLKSLDWNAEYEVYVVAENQQGKSKAAHFVFRTSAQ
In the case of B2, the “binding to the immobilized FGFR modules” value (FGFR1 Ig modules 2, 3) is reported as “binds” and the coefficient of dissociation (FGFR1 Ig modules 2, 3) is reported as 5.56±0.07×10^−3 s^−1.
